What all share (type): cell-based
In one test the test system is E. coli DH5α. Nature of the test: Antibacterial activity: MIC and growth curve against E. coli DH5α in 96-well plate. Conditions: minimal inhibitory concentration against E. coli DH5α; 96-well plate, 5×10^5 CFU/mL, 37° C., judged after 8 h. Put shortly:
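Log-phase bacteria (OD600 ~0.5) resuspended in LB at 5×10^5 CFU/mL, exposed to recombinant protein at 50, 25, 12.5 μg/mL final in triplicate, 37 °C shaking at 175 rpm. OD600 read every 30 min; MIC is lowest concentration showing no growth.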

For a further test, the system named is E. coli BL21. Nature of the test: MIC against Gram-negative bacteria: E. coli BL21. To be noted: E. coli BL21; for MIC (μg/mL) E. coli BL21: 5×10^5 CFU/mL. Put shortly: (§1)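 Purified recombinant human EGF domain proteins are tested by broth dilution in LB against a 5×10^5 CFU/mL inoculum, with two-fold serial dilutions run in triplicate. Plates are incubated at 37° C with shaking, and the MIC is read as the lowest protein concentration without growth.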

The subject of the next test is Pseudomonas aeruginosa. Nature of the test: MIC against Gram-negative bacteria: Pseudomonas aeruginosa. Conditions: for MIC (μg/mL) P. aeruginosa: 5×10^5 CFU/mL. Put shortly: as §1
The test system of the next test is Klebsiella pneumonia. Nature of the test: MIC against Gram-negative bacteria: Klebsiella pneumonia. To be noted: for MIC (μg/mL) K. pneumonia: 5×10^5 CFU/mL. Put shortly: as §1
A further test deals with Enterobacter cloacae. Nature of the test: MIC against Gram-negative bacteria: Enterobacter cloacae. Conditions: for MIC (μg/mL) E. cloacae: 5×10^5 CFU/mL. An outline of the steps: as §1
For a further test, the system named is Aeromonas hydrophila. Nature of the test: MIC against Gram-negative bacteria: Aeromonas hydrophila. To be noted: for MIC (μg/mL) A. hydrophila: 5×10^5 CFU/mL. Put shortly: as §1
The next test concerns Citrobacter diversus. Nature of the test: MIC against Gram-negative bacteria: Citrobacter diversus. To be noted: for MIC (μg/mL) C. diversus: 5×10^5 CFU/mL. Put shortly:
as §1

For another test, the system named is Moraxella catarrhalis. The test is described as follows: MIC against Gram-negative bacteria: Moraxella catarrhalis. Conditions: for MIC (μg/mL) M. catarrhalis: 5×10^5 CFU/mL. An outline of the steps:
as §1

A further test deals with Proteus mirabilis. The test is described as follows: MIC against Gram-negative bacteria: Proteus mirabilis. Conditions: for MIC (μg/mL) P. mirabilis: 5×10^5 CFU/mL. An outline of the steps: as §1
The subject of a further test is Proteus vulgaris. Nature of the test: MIC against Gram-negative bacteria: Proteus vulgaris. To be noted: for MIC (μg/mL) P. vulgaris: 5×10^5 CFU/mL. An outline of the steps: as §1
Another test has as its system Serratia marcescens. Nature of the test: MIC against Gram-negative bacteria: Serratia marcescens. To be noted: for MIC (μg/mL) S. marcescens: 5×10^5 CFU/mL. Put shortly: as §1
[1] abbreviates: P. aeruginosa, 10 h cultivation at 37° C.
[2] abbreviates: K. pneumonia, 10 h cultivation at 37° C.
The mark [3] stands for this setting: E. cloacae, 10 h cultivation at 37° C.
The mark [4] stands for this setting: A. hydrophila, 10 h cultivation at 37° C.
The mark [5] stands for this setting: C. diversus, 10 h cultivation at 37° C.
Where [6] appears, read: M. catarrhalis, 10 h cultivation at 37° C.
Where [7] appears, read: P. mirabilis, 10 h cultivation at 37° C.
Where [8] appears, read: P. vulgaris, 10 h cultivation at 37° C.
Setting [9] is: S. marcescens, 10 h cultivation at 37° C.

Consider “PRT811 (FGKNCSFSCSCQNGGTCDSVTGACRCPPGVSGTNCE; listed as Homo sapiens)”, for which the MIC (in general, the smallest concentration in the dilution series that meets the test's criterion for growth inhibition) in the test with E. coli DH5α worked out at 12.5 µg/mL. The “MIC (μg/mL) E. coli BL21” value with E. coli BL21 (10 h cultivation at 37° C.) came out at 25 µg/mL. Also, the “MIC (μg/mL) P. aeruginosa” value with Pseudomonas aeruginosa (setting [1]) was 12.5 µg/mL. Further, the “MIC (μg/mL) K. pneumonia” value in the test with Klebsiella pneumonia (setting [2]) worked out at 12.5 µg/mL. The “MIC (μg/mL) E. cloacae” value against Enterobacter cloacae (setting [3]) came to 12.5 µg/mL. The “MIC (μg/mL) A. hydrophila” value in the test with Aeromonas hydrophila (setting [4]) was 12.5 µg/mL. The “MIC (μg/mL) C. diversus” value with Citrobacter diversus (setting [5]) worked out at 12.5 µg/mL. In addition, in the test on Moraxella catarrhalis (setting [6]), the “MIC (μg/mL) M. catarrhalis” value was determined as 12.5 µg/mL. In the test on Proteus mirabilis (setting [7]), the “MIC (μg/mL) P. mirabilis” value worked out at 25 µg/mL. Moreover, the “MIC (μg/mL) P. vulgaris” value in the test on Proteus vulgaris (setting [8]) amounted to 25 µg/mL. In addition, in the test with Serratia marcescens (setting [9]), the “MIC (μg/mL) S. marcescens” value amounted to 25 µg/mL.
With “PRT203 (CSPAFCNKRGICNNKHHCHCNYLWDPPNCL; listed as Homo sapiens)”, the MIC in the test with E. coli DH5α came out at 12.5 µg/mL. Besides, in the test with E. coli BL21 (10 h cultivation at 37° C.), the “MIC (μg/mL) E. coli BL21” value came out at 25 µg/mL. Also, in the test with Pseudomonas aeruginosa (setting [1]), the “MIC (μg/mL) P. aeruginosa” value was found to be 12.5 µg/mL. Moreover, the “MIC (μg/mL) K. pneumonia” value against Klebsiella pneumonia (setting [2]) was determined as 25 µg/mL. The “MIC (μg/mL) E. cloacae” value in the test on Enterobacter cloacae (setting [3]) turned out to be 12.5 µg/mL. Further, the “MIC (μg/mL) A. hydrophila” value in the test on Aeromonas hydrophila (setting [4]) was 25 µg/mL. In addition, the “MIC (μg/mL) C. diversus” value in the test with Citrobacter diversus (setting [5]) is 50 µg/mL. For the same substance, in the test with Moraxella catarrhalis (setting [6]), the “MIC (μg/mL) M. catarrhalis” value was found to be 25 µg/mL. Moreover, the “MIC (μg/mL) P. mirabilis” value in the test with Proteus mirabilis (setting [7]) amounted to 50 µg/mL. The “MIC (μg/mL) P. vulgaris” value against Proteus vulgaris (setting [8]) was determined as 25 µg/mL. In addition, the “MIC (μg/mL) S. marcescens” value in the test on Serratia marcescens (setting [9]) worked out at 50 µg/mL.
In the test on E. coli DH5α, “PRT89 (TNGQCHCKEFHYRPRGSDSCLPCDCYPVGSTSRSCA; listed as Homo sapiens)” showed an MIC of 25 µg/mL. In the test with E. coli BL21 (96-well plate, 37° C., 10 h), the “MIC (μg/mL) E. coli BL21” value worked out at 50 µg/mL. Also, the “MIC (μg/mL) P. aeruginosa” value in the test on Pseudomonas aeruginosa (Pseudomonas aeruginosa, 96-well plate, 37° C., 10 h) stood at 12.5 µg/mL. In addition, the “MIC (μg/mL) K. pneumonia” value against Klebsiella pneumonia (Klebsiella pneumonia, 96-well plate, 37° C., 10 h) turned out to be 12.5 µg/mL. Also, the “MIC (μg/mL) E. cloacae” value against Enterobacter cloacae (Enterobacter cloacae, 96-well plate, 37° C., 10 h) came to 25 µg/mL. In addition, the “MIC (μg/mL) A. hydrophila” value in the test with Aeromonas hydrophila (Aeromonas hydrophila, 96-well plate, 37° C., 10 h) was determined as 50 µg/mL. In the test on Citrobacter diversus (Citrobacter diversus, 96-well plate, 37° C., 10 h), the “MIC (μg/mL) C. diversus” value was determined as 25 µg/mL. For the same substance, the “MIC (μg/mL) M. catarrhalis” value with Moraxella catarrhalis (Moraxella catarrhalis, 96-well plate, 37° C., 10 h) came to 12.5 µg/mL. The “MIC (μg/mL) P. mirabilis” value against Proteus mirabilis (Proteus mirabilis, 96-well plate, 37° C., 10 h) was determined as 25 µg/mL. Moreover, the “MIC (μg/mL) P. vulgaris” value against Proteus vulgaris (Proteus vulgaris, 96-well plate, 37° C., 10 h) was 50 µg/mL. Also, the “MIC (μg/mL) S. marcescens” value in the test on Serratia marcescens (Serratia marcescens, 96-well plate, 37° C., 10 h) turned out to be 12.5 µg/mL.
“PRT984 (SNASCAAAPCLHGGSCRPAPLAPFFRCACAQGWTGPRCE; listed as Homo sapiens)”: the MIC in the test on E. coli DH5α was 50 µg/mL; in the test with E. coli BL21 (10 h cultivation at 37° C.), 12.5 µg/mL; with Pseudomonas aeruginosa (setting [1]) it was 25 µg/mL; in the test with Klebsiella pneumonia (setting [2]) it was 50 µg/mL; in the test on Enterobacter cloacae (setting [3]), 25 µg/mL; against Aeromonas hydrophila (setting [4]), 12.5 µg/mL. Also, the MIC in the test with Citrobacter diversus (setting [5]) was determined as 12.5 µg/mL; with Moraxella catarrhalis (setting [6]), 12.5 µg/mL; with Proteus mirabilis (setting [7]), 50 µg/mL; with Proteus vulgaris (setting [8]) it was 25 µg/mL; with Serratia marcescens (setting [9]), 12.5 µg/mL.
“PRT239 (SAGPCTPNPCHNGGTCEISEAYRGDTFIGYVCKCPRGFNGIHCQ; listed as Homo sapiens)” yielded an MIC with E. coli DH5α of 25 µg/mL. Further, in the test with E. coli BL21 (10 h cultivation at 37° C.), the “MIC (μg/mL) E. coli BL21” value is 12.5 µg/mL. The “MIC (μg/mL) P. aeruginosa” value against Pseudomonas aeruginosa (setting [1]) is 12.5 µg/mL. In the test on Klebsiella pneumonia (setting [2]), the “MIC (μg/mL) K. pneumonia” value amounted to 12.5 µg/mL. In the test on Enterobacter cloacae (setting [3]), the “MIC (μg/mL) E. cloacae” value was found to be 12.5 µg/mL. For the same substance, the “MIC (μg/mL) A. hydrophila” value with Aeromonas hydrophila (setting [4]) turned out to be 12.5 µg/mL. Further, in the test on Citrobacter diversus (setting [5]), the “MIC (μg/mL) C. diversus” value is 100 µg/mL. For the same substance, in the test with Moraxella catarrhalis (setting [6]), the “MIC (μg/mL) M. catarrhalis” value was 25 µg/mL. Further, the “MIC (μg/mL) P. mirabilis” value in the test with Proteus mirabilis (setting [7]) turned out to be 12.5 µg/mL. Also, in the test on Proteus vulgaris (setting [8]), the “MIC (μg/mL) P. vulgaris” value is 12.5 µg/mL. Moreover, the “MIC (μg/mL) S. marcescens” value in the test with Serratia marcescens (setting [9]) was found to be 12.5 µg/mL.

The record behind these values is patent publication US9833497B2, “Human originated EGF domain proteins and use of the same” (CHENGDU SOURCEBIO LIMITED-LIABILITY COMPANY, priority 2013, dated 2017).
